BigSolDB 2.1

COc1ccc2nc(SCc3ncc(C)c(OC)c3C)[nH]c2c1
solubility (mole fraction)
Details | in ethanol | in ethyl acetate
277.65 K | 0.0029 | 0.0117
282.65 K | 0.00371 | 0.0168
288.15 K | 0.00483 | 0.0244
293.15 K | 0.00614 | 0.0337
298.05 K | 0.00773 | 0.0455
302.15 K | 0.00935 | 0.0577
307.65 K | 0.012 | 0.0781
313.15 K | 0.0155 | 0.104
317.65 K | 0.0189 | 0.129
322.15 K | 0.0231 | 0.16
327.65 K | 0.0293 | 0.203
333.15 K | 0.0372 | 0.256
